Assay results: patent US11541037B2, “Alkaloids from sponge, scaffolds for the inhibition of human immunodeficiency virus (HIV)” (King Abdullah University of Science and Technology, priority 2014, dated 2023)
In brackets after ≈: the same amount, converted by molar mass. Entries after “also recorded” stand apart in the source; their conditions may differ. Like-named read-outs stand apart in the source and are kept apart here.

Columns and labels:
[1] = tested on: HIV-1; experiment: microbe, parasite or virus in culture; settings: Human immunodeficiency virus 1, read-out: concentration giving 50% inhibition of HIV-1 (viral replication)
Method: (§1) The EASY-HIT assay (Kremb et al. [11]) is based on HIV-1 susceptible reporter cells (LC5-RIC) that contain a stably integrated fluorescent reporter gene that is activated upon successful HIV-1 infection and expression of the early viral proteins Rev and Tat. LC5-RIC were seeded into 96-well plates (μCLEAR-Plate Black; Greiner Bio-One, Kremsmuenster, Germany) using only the 60 inner wells to avoid variations in the culture conditions in the outer wells. Cells were seeded ata density of 10,000 cells per well 24 hours prior to infection. SPE fractions for the biological replicates C26, C14 and D5, were tested in a serial 1:2-dilution with a maximum of 3% methanol or approximately 75 μg/ml for the S. carteri fraction 1 mixture on the EASY-HIT assay [11]. For the HPLC fractions, SPE fraction 1 HPLC fractions 1-11, were tested on the EASY-HIT assay for biological replicates C26, C14 and D5. The authentic samples of HD, DBH, and oroidin were screened at 3.1 μM, 6.25 μM, 12.5 μM, 25 μM, and 50 μM. All samples were tested in triplicates. After compound addition, LC5-RIC cells were infected by adding 20 μl of HIV-1 inoculum (approx. 28.8 ng of p24 for HIV-1LAI derived from HEK 293T cells) to each well of the plate. Cells were incubated at standard cell culture conditions for 48 hours after infection and were subsequently assayed for reporter expression and cell viability.
(§2) Reporter expression was determined by measuring the total fluorescent signal intensity of each culture with a fluorescence microplate reader (Fluoroskan Ascent; ThermoFisher, Schwerte, Germany) at an excitation filter wavelength of 544 nm and an emission filter wavelength of 590 nm or with a Tecan infinite M200 (Tecan, Crailsheim, Germany) at the monochromator wavelengths 552 nm for excitation and 596 for emission. Statistical significances were determined using one-way ANOVA.

[2] = tested on: LC5-RIC cells; experiment: MTT cell proliferation (vitality) assay of infected LC5-RIC cells; format: cell-based; settings: for concentrations at which cytotoxicity was observed / cytotoxicity (in words): LC5-RIC cells; for cytotoxicity (in words): tested concentrations 3.1-50 μM
Method: The colorimetric assay […] was used in order to assess the viability and activity of LC5-RIC cells exposed to the unknown sponge mixtures, SPE fraction 1 and HPLC fractions 1-11, for three biological replicates. This cell vitality assay provides a visualization of the process where mitochondrial enzymes reduce the yellow MTT to purple formazan (ATCC, MTT cell proliferation assay). After reading the HIV reporter expression, cultures were incubated with 100 μl of MTT solution (0.5 mg of […]; Sigma, Taufkirchen, Germany) in 100 μl of culture medium for 2 hours. MTT solution was removed and 100 μl of lysis solution (10% [wt/vol] SDS and 0.6% [vol/vol] acetic acid in dimethyl sulfoxide [DMSO]) was added. The formazan concentrations of the test compounds and the uninfected control cultures were determined by an ELISA plate reader (Tecan Infinite M200, Tecan Germany GmbH, Crailsheim) and scanned with a test wavelength of 570 nm and a reference wavelength of 630 nm.

[3] = vendor data, Enzo Life Sciences, cited from earlier work
[4] = target: T1, HIV-1 reverse transcriptase (Human immunodeficiency virus type 1 group M subtype B, UniProt P04585); experiment: HIV-1 reverse transcriptase biochemical assay (EnzChek); settings: for anti-HIV-1 RT activity (in words): screened at 3.1-100 μM
T1 construct: The reverse transcriptase is a heterodimer with the p66 and the p51 subunits; purchased Calbiochem, Merck-Millipore
Method: The HIV-1 reverse transcriptase inhibition assay was carried out using the commercial kit EnzChek® Reverse Transcriptase Assay (Invitrogen, San Jose, Calif., USA). The reverse transcriptase is a heterodimer with the p66 and the p51 subunits with RNase H activity located in the last 15 KDa of the p66 HIV Reverse transcriptase (Calbiochem, Merck-Millipore). Polymerase activity was assessed by its ability to produce RNA-DNA heteroduplexes from a mixture of a long poly (A) template, an oligo dT primer and dTTP which is then detected by PicoGreen® dsDNA quantitation reagent. The single compound and controls were performed in triplicated in a 384-well plate format, each with a total reaction mixture of 50 μL. To begin, the poly (A) template was annealed to the oligo dT primer for one hour, then diluted 200 fold in polymerization buffer. Reverse transcriptase (1.2 μl) was added per 300 reactions. This mixture was kept on ice and aliquoted to each well with test compounds. The reaction was incubated at room temperature for one hour and then 2 μl of […] EDTA was added to stop the reaction. The RNA-DNA heteroduplex was labeled with PicoGreen and incubated for 5 minutes and then detected with the use of a SpectraMax® Paradigm® Multi-mode Microplate Detection Platform (Molecular Devices, Sunnyvale, Calif., USA) by scanning at 480 nm excitation wavelength and 520 nm emission wavelength. […] Statistical significances were determined using a one-way ANOVA.

[5] = tested on: HIV-1
Method: as §1, §2

[6] = tested on: HIV; settings: concentrations not detailed; cited from earlier work

Row | SMILES | IC50 [1] [µM] | effect on cell vitality ([2]; 3.1 μM) | concentrations at which cytotoxicity was observed [2] | cytotoxicity (in words) [2] | solubility in DMSO ([3]; DMSO) [µg/mL] | anti-HIV-1 RT activity (in words) [4] | HIV infection, % of untreated controls ([5]; 3.1 μM) [%] | inhibition of HIV-1 replication (in words) ([5]; EASY-HIT, LC5-RIC cells) | cytotoxicity (in words) ([2]; listed as Oroidin) | inhibition of HIV-1 reverse transcriptase activity ([4]; 25 μM) | inhibition of the HIV-1 RT enzyme ([4]; concentrations greater than 25 μM) [%] | HIV-1 infection, % of untreated controls ([5]; 50 μM) [%] | reduction of HIV-1 replication ([5]; 50 μM) | inhibition of HIV-1 replication (in words) ([5]; EASY-HIT, LC5-RIC cells, listed as Oroidin) | IC50 ([5]; read-out: concentration giving 50% inhibition of HIV-1 (viral replication), EASY-HIT, LC5-RIC cells, purchased pure compounds) [µM] | ability to inhibit HIV replication, previous study [6] | effect on cell vitality ([2]; 13 μM) | solubility (in words) [3] | HIV-1 infection, % of untreated controls ([5]; 13 μM) [%]
1 | NC1=NC(=O)/C(=C2\CCNC(=O)c3[nH]c(Br)cc32)N1 [HD, 10Z-Hymenialdisine] | 13 | without affecting cell vitality | greater than 3.1 μM | exhibited cytotoxicity | 5000 (≈ 15.4 mM) | did not show anti-HIV-1 RT activity; also recorded: do not affect this enzyme | < 40 | capable of inhibiting HIV-1 replication |  |  |  |  |  |  |  |  |  |  | 
2 | Nc1ncc(/C=C/CNC(=O)c2cc(Br)c(Br)[nH]2)[nH]1 [oroidin] |  |  |  | non-cytotoxic at all tested concentrations; also recorded: without causing cytotoxicity; also recorded: no associated toxicity |  | directly acting to inhibit the retroviral reverse transcriptase |  | capable of inhibiting HIV-1 replication | nontoxic for cells at all tested concentrations | up to 90% | 90 | 50 | up to 50% | weakest antiviral activity | 50 | inactive |  |  | 
3 | NC1=NC(=O)/C(=C2\CCNC(=O)c3[nH]ccc32)N1 [DBH, 4-(2-Amino-4-oxo-2-imidazolin-5-ylidene)-4,5,6,7-tetrahydropyrrolo[2,3-c]azepin-8-one] | 7 |  | greater than 13 μM | exhibited cytotoxicity |  | did not show anti-HIV-1 RT activity; also recorded: do not affect this enzyme |  |  |  |  |  |  |  |  |  |  | without affecting cell vitality | Soluble in 100% ethanol or DMSO | 30
